Reference: US9670147B2, “Antioxidant inflammation modulators: oleanolic acid derivatives with amino and other modifications at C-17” (REATA PHARMACEUTICALS, INC., priority 2008, dated 2017)
pIC50: −log10 of the molar value.

How the values were obtained:
RAW264.7 macrophages = assay: Cell viability, WST-1 reagent; assay type: cell-based, mouse; conditions: Mus musculus, 2 h pre-treatment, then 20 ng/ml IFNγ for 24 hours
Protocol: (§1) FIGS. 1-34. Inhibition of NO Production. RAW264.7 macrophages were pre-treated with DMSO or drugs at various concentrations (nM) for 2 hours, then treated with 20 ng/ml IFNγ for 24 hours. NO concentration in media was determined using the Griess reagent system; cell viability was determined using WST-1 reagent. FIGS. 49-52. Inhibition of NO Production. RAW264.7 macrophages were pre-treated with DMSO or drugs at various concentrations (nM) for 2 hours, then treated with 20 ng/ml IFNγ for 24 hours. NO concentration in media was determined using the Griess reagent system; cell viability was determined using WST-1 reagent. RAW264.7 macrophages were pre-treated with DMSO or drugs for 2 hours, then treated with recombinant mouse IFNγ (Sigma) for 24 hours. NO concentration in media was determined using the Griess reagent system (Promega). Cell viability was determined using WST-1 reagent (Roche).

TrxR1 = assay: Nrf2 target gene induction in MDA-MB-435 cells, qPCR: TrxR1; assay type: cell-based, human; conditions: 16 hours
Protocol: (§2) FIGS. 44, 46 and 47—Induction of HO-1, TrxR1 and γ-GCS. FIGS. 44A-C, 46A-C, 47A-C: MDA-MB-435 human melanoma cells were treated with vehicle (DMSO) or the indicated compounds (400 nM) for 16 hours. HO-1, thioredoxin reductase-1 (TrxR1), and γ-glutamylcysteine synthetase (γ-GCS) mRNA levels were quantified using qPCR and were normalized relative to a DMSO-treated sample run in parallel. Values are averages of duplicate wells. FIGS. 44D, 46D, 47D: MDA-MB-435 cells were treated with vehicle (DMSO) or the indicated compounds at 400 nM for 16 hours. HO-1, TrxR1 and actin protein levels were assayed by immunoblotting.
(§3) FIG. 45. Induction of HO-1, TrxR1 and γ-GCS. FIGS. 45 A-C: MDA-MB-435 cells were treated with vehicle (DMSO) or the indicated compounds at 160 nM for 16 hours. HO-1, TrxR1, and γ-GCS mRNA levels were quantified by qPCR and were normalized relative to a DMSO-treated sample run in parallel. Values are averages of duplicate wells. FIGS. 44D, 46D, 47D: MDA-MB-435 cells were treated with vehicle (DMSO) or the indicated compounds at 160 nM for 16 hours. HO-1, TrxR1 and actin protein levels were assayed by immunoblotting.
(§4) MDA-MB-435 human melanoma cells were treated with vehicle (DMSO) or the indicated compounds and concentrations for 16 hours. HO-1, thioredoxin reductase-1 (TrxR1), γ-glutamylcysteine synthetase (γ-GCS), and ferritin heavy chain mRNA levels were quantified using qPCR and were normalized relative to a DMSO-treated sample run in parallel. Values are averages of duplicate wells. Primer sequences are as follows.

[1] = test system: IFNγ-induced NO production in RAW264.7 macrophages; assay: Suppression of IFNγ-induced NO production (Griess reagent); assay type: cell-based, mouse; conditions: Mus musculus, 2 h pre-treatment, then 20 ng/ml IFNγ for 24 hours
Protocol: as §1

γ-GCS = assay: Nrf2 target gene induction in MDA-MB-435 cells, qPCR: γ-GCS; assay type: cell-based, human; conditions: 16 hours
Protocol: as §2, §3, §4

HO-1 = assay: Nrf2 target gene induction in MDA-MB-435 cells, qPCR: HO-1; assay type: cell-based, human; conditions: 16 hours
Protocol: FIG. 43. Induction of HO-1. FIGS. 43A and 43B: MDA-MB-435 human melanoma cells were treated with vehicle (DMSO) or the indicated compounds and concentrations for 16 hours. HO-1 mRNA levels were quantified using qPCR and were normalized relative to a DMSO-treated sample run in parallel. Values are averages of duplicate wells. FIG. 43C: MDA-MB-435 cells were treated with vehicle (DMSO) or the indicated compounds at 400 nM for 16 hours. HO-1, TrxR1 and actin protein levels were assayed by immunoblotting. Actin served as a loading control.
as §2, §3, §4

iNOS = iNOS Western blot in RAW264.7 mouse macrophages; assay type: cell-based; conditions: compounds at 300 nM for 2 hours, 24 hour induction by IFNγ, read-out: iNOS suppr. WB
Protocol: FIGS. 38-40. iNOS Western Blot in RAW264.7 mouse macrophages. Cells were pretreated by compounds at 300 nM for 2 hours, followed by 24 hour induction by IFNγ (20 ng/ml). […]

SMILES | pIC50 [1] | pIC50 (RAW264.7 macrophages) | TrxR1 induction (TrxR1; 160 nM) | γ-GCS induction (γ-GCS; 160 nM) | HO-1 induction (HO-1; 160 nM) | TrxR1 induction (TrxR1; 400 nM) | inhibition at 0.3 µM (iNOS) | γ-GCS induction (γ-GCS; 400 nM) | HO-1 induction (HO-1; 400 nM)
CNC(=O)N[C@]12CCC(C)(C)C[C@H]1[C@H]1C(=O)C=C3[C@@]4(C)C=C(C#N)C(=O)C(C)(C)[C@@H]4CC[C@@]3(C)[C@]1(C)CC2 [Compound 63172, 1-((4aS,6aR,6bS,8aR,12aS,14aR,14bS)-11-cyano-2,2,6a,6b,9,9,12a-heptamethyl-10,14-dioxo-1,2,3,4,4a,5,6,6a,6b,7,8,8a,9,10,12a,14,14a,14b-octadecahydropicen-4a-yl)-3-methylurea] | 7.52 | < 6.70 | 43% of induction observed for RTA 402 | 27% of induction observed for RTA 402 | 4% of induction observed for RTA 402 | – | – | – | –
CC1(C)CC[C@]2(NS(=O)(=O)c3cccs3)CC[C@]3(C)[C@H](C(=O)C=C4[C@@]5(C)C=C(C#N)C(=O)C(C)(C)[C@@H]5CC[C@]43C)[C@@H]2C1 [Compound 63187, N-((4aS,6aR,6bS,8aR,12aS,14aR,14bS)-11-cyano-2,2,6a,6b,9,9,12a-heptamethyl-10,14-dioxo-1,2,3,4,4a,5,6,6a,6b,7,8,8a,9,10,12a,14,14a,14b-octadecahydropicen-4a-yl)thiophene-2-sulfonamide] | 8.30 to 8.70 | 7.00 | – | – | – | 90% of induction observed for RTA 402 | > 90% | 90% of induction observed for RTA 402 | 32% of induction observed for RTA 402
C#CC(=O)N[C@]12CCC(C)(C)C[C@H]1[C@H]1C(=O)C=C3[C@@]4(C)C=C(C#N)C(=O)C(C)(C)[C@@H]4CC[C@@]3(C)[C@]1(C)CC2 [Compound 63246, N-((4aS,6aR,6bS,8aR,12aS,14aR,14bS)-11-cyano-2,2,6a,6b,9,9,12a-heptamethyl-10,14-dioxo-1,2,3,4,4a,5,6,6a,6b,7,8,8a,9,10,12a,14,14a,14b-octadecahydropicen-4a-yl)propiolamide] | ~8.52 | < 6.70 | – | – | – | 66% of induction observed for RTA 402 | > 90% | 77% of induction observed for RTA 402 | 25% of induction observed for RTA 402
CC(C)OC(=O)N[C@]12CCC(C)(C)C[C@H]1[C@H]1C(=O)C=C3[C@@]4(C)C=C(C#N)C(=O)C(C)(C)[C@@H]4CC[C@@]3(C)[C@]1(C)CC2 [Compound 63184, isopropyl-(4aS,6aR,6bS,8aR,12aS,14aR,14bS)-11-cyano-2,2,6a,6b,9,9,12a-heptamethyl-10,14-dioxo-1,2,3,4,4a,5,6,6a,6b,7,8,8a,9,10,12a,14,14a,14b-octadecahydropicen-4a-ylcarbamate] | 7.84 | 7.12 | – | – | – | – | – | – | –
CC1(C)CC[C@]2(NC(N)=O)CC[C@]3(C)[C@H](C(=O)C=C4[C@@]5(C)C=C(C#N)C(=O)C(C)(C)[C@@H]5CC[C@]43C)[C@@H]2C1 [Compound 63176, 1-((4aS,6aR,6bS,8aR,12aS,14aR,14bS)-11-cyano-2,2,6a,6b,9,9,12a-heptamethyl-10,14-dioxo-1,2,3,4,4a,5,6,6a,6b,7,8,8a,9,10,12a,14,14a,14b-octadecahydropicen-4a-yl)urea] | 7.00 | < 6.70 | – | – | – | – | – | – | –
CC1(C)CC[C@]2(NS(=O)(=O)CC(F)(F)F)CC[C@]3(C)[C@H](C(=O)C=C4[C@@]5(C)C=C(C#N)C(=O)C(C)(C)[C@@H]5CC[C@]43C)[C@@H]2C1 [Compound 63247, N-((4aS,6aR,6bS,8aR,12aS,14aR,14bS)-11-cyano-2,2,6a,6b,9,9,12a-heptamethyl-10,14-dioxo-1,2,3,4,4a,5,6,6a,6b,7,8,8a,9,10,12a,14,14a,14b-octadecahydropicen-4a-yl)-2,2,2-trifluoroethanesulfonamide] | ~8.70 | 6.82 | – | – | – | 76% of induction observed for RTA 402 | > 90% | 75% of induction observed for RTA 402 | 19% of induction observed for RTA 402

Second part, led by results:

pIC50 [1] | SMILES | pIC50 (RAW264.7 macrophages) | TrxR1 induction (TrxR1; 160 nM) | γ-GCS induction (γ-GCS; 160 nM) | HO-1 induction (HO-1; 160 nM) | TrxR1 induction (TrxR1; 400 nM) | inhibition at 0.3 µM (iNOS) | γ-GCS induction (γ-GCS; 400 nM) | HO-1 induction (HO-1; 400 nM)
7.87 | CN(C)C(=O)N[C@]12CCC(C)(C)C[C@H]1[C@H]1C(=O)C=C3[C@@]4(C)C=C(C#N)C(=O)C(C)(C)[C@@H]4CC[C@@]3(C)[C@]1(C)CC2 [Compound 63180, 3-((4aS,6aR,6bS,8aR,12aS,14aR,14bS)-11-cyano-2,2,6a,6b,9,9,12a-heptamethyl-10,14-dioxo-1,2,3,4,4a,5,6,6a,6b,7,8,8a,9,10,12a,14,14a,14b-octadecahydropicen-4a-yl)-1,1-dimethylurea] | 6.70 | – | – | – | – | – | – | –
8.17 | CC1(C)CC[C@]2(NC(=O)n3cccn3)CC[C@]3(C)[C@H](C(=O)C=C4[C@@]5(C)C=C(C#N)C(=O)C(C)(C)[C@@H]5CC[C@]43C)[C@@H]2C1 [Compound 63178, N-((4aS,6aR,6bS,8aR,12aS,14aR,14bS)-11-cyano-2,2,6a,6b,9,9,12a-heptamethyl-10,14-dioxo-1,2,3,4,4a,5,6,6a,6b,7,8,8a,9,10,12a,14,14a,14b-octadecahydropicen-4a-yl)-1H-pyrazole-1-carboxamide] | 7.10 | – | – | – | – | – | – | –
8.10 to 8.40 | CC1(C)CC[C@]2(NC(=O)N3CCCCC3)CC[C@]3(C)[C@H](C(=O)C=C4[C@@]5(C)C=C(C#N)C(=O)C(C)(C)[C@@H]5CC[C@]43C)[C@@H]2C1 [Compound 63181, N-((4aS,6aR,6bS,8aR,12aS,14aR,14bS)-11-cyano-2,2,6a,6b,9,9,12a-heptamethyl-10,14-dioxo-1,2,3,4,4a,5,6,6a,6b,7,8,8a,9,10,12a,14,14a,14b-octadecahydropicen-4a-yl)piperidine-1-carboxamide] | 7.12 | – | – | – | – | – | – | –
7.57 | CC1(C)CC[C@]2(NC(=O)N3CCOCC3)CC[C@]3(C)[C@H](C(=O)C=C4[C@@]5(C)C=C(C#N)C(=O)C(C)(C)[C@@H]5CC[C@]43C)[C@@H]2C1 [Compound 63188, N-((4aS,6aR,6bS,8aR,12aS,14aR,14bS)-11-cyano-2,2,6a,6b,9,9,12a-heptamethyl-10,14-dioxo-1,2,3,4,4a,5,6,6a,6b,7,8,8a,9,10,12a,14,14a,14b-octadecahydropicen-4a-yl)morpholine-4-carboxamide] | < 6.70 | – | – | – | – | – | – | –
8.12 | CCC(=O)N[C@]12CCC(C)(C)C[C@H]1[C@H]1C(=O)C=C3[C@@]4(C)C=C(C#N)C(=O)C(C)(C)[C@@H]4CC[C@@]3(C)[C@]1(C)CC2 [Compound 63189, N-((4aS,6aR,6bS,8aR,12aS,14aR,14bS)-11-cyano-2,2,6a,6b,9,9,12a-heptamethyl-10,14-dioxo-1,2,3,4,4a,5,6,6a,6b,7,8,8a,9,10,12a,14,14a,14b-octadecahydropicen-4a-yl)propionamide] | 7.12 | – | – | – | – | – | – | –
~6.92 | CC1(C)CC[C@]2(NC(=O)C3CC3)CC[C@]3(C)[C@H](C(=O)C[C@@H]4[C@@]5(C)C=C(C#N)C(=O)C(C)(C)[C@@H]5CC[C@]43C)[C@@H]2C1 [Compound 63236, N-((4aS,6aR,6bR,8aR,12aR,12bR,14aR,14bS)-11-cyano-2,2,6a,6b,9,9,12a-heptamethyl-10,14-dioxo-1,2,3,4,4a,5,6,6a,6b,7,8,8a,9,10,12a,12b,13,14,14a,14b-icosahydropicen-4a-yl)cyclopropanecarboxamide] | < 6.70 | – | – | – | – | – | – | –
